Assay results from patent publication US20110136898A1, “TREATMENT OF RETINAL DEGENERATION” (UNIVERSITY COLLEGE CORK, NATIONAL UNIVERSITY OF IRELAND, …, priority 2008, published 2011).
“Also recorded” adds a separate entry of the source.

What was measured:
photoreceptor cells [1] = test: Retinal explant culture, SNP induced apoptosis detected by TUNEL; format: cell-based, C57BL/6 mice; settings: for Protection of photoreceptor cells from SNP induced apoptosis at 25 μM / Protection of photoreceptor cells from SNP induced apoptosis: 300 μM SNP 24 h, 1 hour pre-treatment; for Protection of photoreceptor cells from SNP induced apoptosis: retinal explants, TUNEL
[2] = Lipophilicity of BP derivatives; format: physicochemical; settings: FIG. 4
Procedure: (§1) FIG. 4: Is a histogram of % protection afforded by a 25 μM concentration of each BP derivative BP1 to BP6 in photoreceptor cells as a function of the lipophilicity of each derivative. (P is a logarithmic value that indicates the lipophilicity of a compound).

ganglion cells = test: NMDA-induced excitotoxicity, acute model of Glaucoma; format: in vivo, balb/c mice
Procedure: In this model intravitreal injection of 40 mM NMDA results in the progressive loss of ganglion cells from the ganglion cell layer (GCL), accompanied by a thinning of the inner plexiform layer (IPL) over time.
By 48 and 72 hours post excitotoxicity the eventual loss of cells of the ONL is evident.
FIG. 13 is a histogram of the data from FIG. 12.
(§2) Apoptosis detection by Terminal deoxynucleotidyl transferase-mediated biotinylated UTP nick end labeling (TUNEL): Retinal explants were fixed in 10% neutral buffered formalin overnight at 4° C., followed by cryoprotection in 25% sucrose overnight at 4° C. Frozen sections (7 μm) were incubated with terminal deoxynucleotidyl transferase (MSC, Dublin, Republic of Ireland) and fluorescein-12-dUTP (Roche, Lewes, UK) according to manufacturers' instructions at 37° C. for 1 h. Sections were mounted and viewed under a fluorescence microscope (Leica DM LB2; Leica, Nussloch, Germany) using an FITC filter.
(§3) Hematoxylin staining: Eyes were fixed in 10% neutral buffered formalin overnight at 4° C., followed by cryoprotection in 25% sucrose overnight at 4° C. Frozen sections (7 μm) were stained in Hematoxylin (Sigma, Dublin, Ireland) for 10 seconds followed by a 15 minute water wash and 2-3 dips in acid alcohol. Following further washing, sections were placed in a 2% sodium bicarbonate (Sigma, Dublin, Ireland) solution for 30 seconds then dehydrated through an alcohol gradient. Sections were cleared in Histoclear (Sigma, Dublin, Ireland) for 5 minutes then mouted in DPX (BDH, VWR International Ltd., Poole, England) and viewed under a light microscope (Leica DM LB2; Leica, Nussloch, Germany).
Intravitreal Injections: Adult balb/c mice were anaesthetised using an intraperitoneal injection of ketamine hydrochloride 35-50 mg/kg (Pharmacia, Corby, Northamptonshire, UK) and xylazine hydrochloride 5-10 mg/kg (Chanelle Pharmaceuticals, Loughrea, Co. Galway, Ireland), and animals were placed in the pronate position. […]

[3] = Stability of BP derivatives; format: physicochemical
photoreceptor cells [4] = test: SNP challenge in photoreceptor cells, protection by BP derivatives; format: cell-based
Procedure: FIG. 2: Is a histogram of results showing the effectiveness of a 25 μM concentration of each of the BP derivatives BP-1 to BP6 against increasing concentrations of SNP in photoreceptor cells. Error bars are +/−standard deviation-SD.
as §1

photoreceptor cells [5] = test: rd10 chronic model of retinal degeneration; format: in vivo, rd10 mouse
Description: In this model photoreceptor cells degenerate more slowly than the light model, over weeks rather than hours to days. Cell death is evident from postnatal day 18 (P18) and by P25 a significant loss of photoreceptor cell layers is observed. […] In this model, the central and peripheral retina degenerate at different rates. The loss of photoreceptors is greater in the central retina than the periphery between P18 and P25.
FIG. 10: The ONL comprises two types of cell; rod photoreceptors and cone photoreceptors. […] Rhodopsin is a protein specifically found in the outer segments (OS) of rod photoreceptors. […] Peanut agglutinin (PNA) is a lectin which binds to carbohydrates found in the outer membrane of cone photoreceptors but which are absent from rods.
Frozen sections (7 μm) were blocked with 0.1% bovine serum albumin (BSA) in 0.1% tween/PBS for 1 hour at room temperature. Sections were incubated with anti-rhodopsin antibody (LAB VISION Corporation, Fremont, Calif., USA) overnight at 4° C. Sections were washed and incubated with FITC conjugated secondary mouse antibody (Dako, Glostrup, Denmark) for 1 hour at room temperature. Following further washes, sections were mounted and viewed under a fluorescence microscope (Leica DM LB2; Leica, Nussloch, Germany) using a FITC filter.
Frozen sections (7 μm) were blocked with 0.1% bovine serum albumin (BSA) in 0.1% tween/PBS for 30 minutes at room temperature. Sections were incubated with rhodamine conjugated PNA (Invitrogen, Dun Laoghaire, Ireland) for 20 minutes at room temperature as per manufacturers' instructions. Sections were mounted and viewed under a fluorescence microscope (Leica DM LB2; Leica, Nussloch, Germany) using a TRITC filter.
as §3, with “Frozen” for “Hematoxylin staining: Eyes were fixed in 10% neutral buffered formalin overnight at 4° C., followed by cryoprotection in 25% sucrose overnight at 4° C. Frozen”
It is a better model of the slow progression of typical human autosomal recessive RP than the acute light model as photoreceptor cells are lost over a period of weeks rather than days. Loss of photoreceptors in the rd10 mouse begins at approximately 2 weeks of age, with the peak of photoreceptor death occurring at postnatal day (P) 25.

photoreceptor cells [6] = test: Light damage model in vivo, TUNEL; set-up: species or system albino balb/c mice; settings: for Protection from light induced retinal damage (apoptosis of photoreceptors): 200 mg/kg IP, 1 hour pre-treatment, single injection
Procedure: FIG. 7: In this figure the study was extended from ex vivo cultures to the light damage model in vivo. In this acute model of retinal disease albino balb/c mice are exposed to excessive white light causing the photoreceptor cells to die by apoptosis. […] The protection extends to 48 hours with only a single injection of BP3.
FIG. 8 is a histogram of the results from FIG. 7. TUNEL positive cells in three independent retinae were counted. Counts were performed on the central 40× field of the outer nuclear layer (ONL) and graphed with error bars (+/−standard deviation-SD).
as §2
Light damage model: Balb/c mice were dark adapted for 18 h prior to exposure to constant light. Mice were injected intraperitoneally with the Active 1 hour prior to light damage. Immediately prior to light exposure their pupils were dilated with 0.5% cyclopentolate under red light. Retinal light damage was induced by exposure to 2 h of cool white fluorescent light at an illumination of 5000 lux. Following exposure to constant light, animals were placed in the dark for 24 h then killed immediately by cervical dislocation. TUNEL staining was performed as described above.

[7] = 200 mg/kg 1 hour prior to 40 mM NMDA injection, 48 and 72 hours post insult

For `COc1cc2c(cc1O)CCC(C)(C)O2` [BP, 3,4-dihydro-6-hydroxy-7-methoxy-2,2-dimethyl-1(2H)-benzopyran], the “Protection of photoreceptor cells from SNP induced apoptosis at 25 μM” value (photoreceptor cells [1]; FIGS. 5 and 6) was “effective” and the “Protection of photoreceptor cells from SNP induced apoptosis” value (photoreceptor cells [1]) was “protect photoreceptor cells from SNP induced apoptosis”.
With `C#CC1(O)CC[C@H]2[C@@H]3CCC4=CC(=O)CC[C@@H]4[C@H]3CC[C@@]21CC` (mixture of isomers) [norgestrel, reference compound] the “Protection of photoreceptor cells from SNP induced apoptosis” value (photoreceptor cells [1]) was “protected”.
With `COc1cc2c(cc1OC(=O)c1ccccc1F)CCC(C)(C)O2` [BP6] the “Lipophilicity (P), rank order” value [2] was “BP1<BP2<BP3=BP5=BP6<BP4”.
With `COc1cc2c(cc1OC(=O)C(C)(C)C)CCC(C)(C)O2` [BP2] the “Lipophilicity (P), rank order” value [2] was “BP1<BP2<BP3=BP5=BP6<BP4”.
For `CCCCC(C)C(=O)Oc1cc2c(cc1OC)OC(C)(C)CC2` (centres unmarked) [BP3], the “Protection of photoreceptor cells from SNP induced apoptosis at 25 μM” value (photoreceptor cells [1]; FIGS. 5 and 6) was “effective”, the “Concentration at which BP3 is equally as effective, times lower than BP” value (photoreceptor cells [1]; SNP induced apoptosis, FIGS. 5 and 6) was 10 times and the “Protection of photoreceptor cells from SNP induced apoptosis” value (photoreceptor cells [1]) was “protect photoreceptor cells from SNP induced apoptosis”. For the same molecule, the “Protection of photoreceptor cells from SNP induced apoptosis” value (photoreceptor cells [1]; listed as BP-3) was “inhibiting apoptosis; also recorded: better protection”, the “Ganglion cell loss from the GCL” value (ganglion cells; [7]) was “significantly attenuates” and the IPL thinning (ganglion cells; [7]) was “significantly attenuates”. For the same molecule, the “Protection from NMDA-induced cell death (TUNEL positive cells, all retinal layers)” value (ganglion cells; 200 mg/kg I.P. 1 hour prior to NMDA injection, 4, 24, 48 and 72 hours) was “significantly protects retinal cells in all layers at all time points examined; also recorded: significant protection”, the “Stability of the compound” value [3] was “far more stable than BP4” and the “Inhibition of apoptosis in retinal cells” value (photoreceptor cells [4]) was “inhibiting apoptosis”. For the same molecule, the “Lipophilicity (P), rank order” value [2] was “BP1<BP2<BP3=BP5=BP6<BP4”, the “Cone cells in the ONL (PNA staining)” value (photoreceptor cells [5]; alternate days from P18 to P25) was “more cone cells” and the “Rhodopsin positive cells (rods) in the ONL compared to vehicle” value (photoreceptor cells [5]; alternate days from P18 to P25, immunofluorescent staining) was “more rhodopsin positive cells remain”. The “Protection from photoreceptor cell death in the ONL” value (photoreceptor cells [5]; injected daily with 200 mg/kg, P18 to P25, 200 mg/kg) was “protection from photoreceptor cell death in the ONL; also recorded: areas of the retina are protected”, the “Protection of retinal areas, alternate-day injection versus daily injection” value (photoreceptor cells [5]; injection on alternate days, all retinal areas) was “same level of protection as a daily injection regimen” and the “Protection from light induced retinal damage (apoptosis of photoreceptors)” value (photoreceptor cells [6]) was “protects from the retinal damage observed”. For the same molecule, the “Protection from light induced retinal damage (apoptosis of photoreceptors)” value (photoreceptor cells [6]; listed as BP-3) was “protected”, the “Protection from light induced cell death in the central retina (TUNEL positive cells, ONL)” value (photoreceptor cells [6]; at 24, 48 and 72 hours, 200 mg/kg, FIG. 8) was “approx 40%” and the “Protection at 72 hours post light damage” value (photoreceptor cells [6]; second dose of 200 mg/kg at 24 hours post light damage) was “significant protection”. For the same molecule, the “Time to which protection extends” value (photoreceptor cells [6]; single injection of 200 mg/kg, post light damage) was 48 h.
For `COc1cc2c(cc1OC(C)=O)CCC(C)(C)O2` [BP1], the “Lipophilicity (P), rank order” value [2] was “BP1<BP2<BP3=BP5=BP6<BP4”.
In the case of `COc1cc2c(cc1OC(=O)c1ccccc1)CCC(C)(C)O2` [BP5], the “Lipophilicity (P), rank order” value [2] is reported as “BP1<BP2<BP3=BP5=BP6<BP4”.
